Data taken from US4065620A, “3-(Substituted) vinyl cephalosporins” (Eli Lilly and Company, priority 1971, dated 1977).
Values after ≈ are worked out from the molar mass of the structure shown.

Tests used:
Format in all cases: cell-based
Sarcina lutea = assay: Bioautograph against Sarcina lutea
Procedure: (§1) A solution of 25 mg. of tert-butyl 7-(2'-tert-butoxycarbonylamino-2'-phenylacetamido)-3-(2'-tert-butoxycarbonylvinyl)-3-cephem-4-carboxylate, prepared as described in Example 19, in 5 cc of 98-100 percent formic acid was allowed to stand for 1 hour at room temperature. After evaporating under reduced pressure the formic acid, the acid residue was taken up in trifluoroacetic acid and the NMR spectrum was taken.

[1] = system: Gram positive and Gram negative microorganisms; assay: Disc plate assay; details: variety of Gram positive and Gram negative microorganisms
Procedure: as §1

B. subtilis = assay: Bioautograph test against B. subtilis; details: at 1 microgram/milliliter
Procedure: Each of the cis-and trans-isomers of tert-butyl 3-(2'-cyanovinyl)-7-phenoxyacetamido-3-cephem-4-carboxylate from Example 17 was in turn treated with 98-100 percent formic acid for 1 hour at room temperature to cleave the tert-butyl ester groups therefrom. After evaporation under reduced pressure of the excess formic acid, the acid residue was separated as an oil.

[2] = system: Gram positive and Gram negative microorganisms; assay: Standard gradient plate assay, Gram positive and Gram negative microorganisms
Description: (§2) The data which follow are minimum inhibitory concentrations (MIC) in micrograms of compound per milliliter of agar medium in standard gradient plate in vitro tests against various Gram positive and Gram negative microorganisms. The data given here are for compounds satisfying the general formula [drawing 25] where R and X are as defined in the table which follows:
(§3) 1. The gradient plate procedure used is essentially that described by
(§4) Bryson and Szybalski in 1952 (Science, 116, pp. 45-46). The inoculum

[3] = system: Enterobacter aerogenes X-68; assay: Gradient plate in vitro MIC, X68; details: X68, G-; for MIC: Klebsiella aerogenes, read-out: minimum inhibitory concentration (MIC)
Description: as §2, §3, §4
(§5) 3. Gram negative microorganism identifications:
X-68 is Enterobacter aerogenes

[4] = system: Salmonella heidellberg X-514; assay: Gradient plate in vitro MIC, X514; details: X514, G-; for MIC: Salmonella, read-out: minimum inhibitory concentration (MIC)
Description: as §2, §3, §4, §5
X-514 is Salmonella heidellberg

[5] = system: penicillin-resistant, Methicillin-resistant Staphylococcus aureus strain X-400; assay: Gradient plate in vitro MIC, strain X400; details: X400, G+, penicillin- and Methicillin-resistant; for MIC: Staphylococcus aureus, read-out: minimum inhibitory concentration (MIC)
Description: as §2, §3, §4
(§6) treatment method used for penicillin-resistant Staphlococci was reported
(§7) by Godzeski et al. in Antimicrobial Agents and Chemotherapy, May, 1961,
(§8) 2. Gram positive microorganism identifications are all
(§9) penicillin-resistant Staphylococcus aureus strains V-41, V-32, X-400,
(§10) V-84. X-400 is also Methicillin-resistant.

Serratia marcescens X-99 = assay: Gradient plate in vitro MIC, X99; details: X99, G-; for MIC: Serratia marcescens, read-out: minimum inhibitory concentration (MIC)
Description: as §2, §3, §4, §5
X-99 is Serratia marcescens

[6] = system: penicillin-resistant Staphylococcus aureus strain V-84; assay: Gradient plate in vitro MIC, strain V84; details: V84, G+; for MIC: Staphylococcus aureus, read-out: minimum inhibitory concentration (MIC)
Description: as §2, §3, §4, §6, §7, §8, §9, §10

[7] = system: penicillin-resistant Staphylococcus aureus strain V-32; assay: Gradient plate in vitro MIC, strain V32; details: V32, G+; for MIC: Staphylococcus aureus, read-out: minimum inhibitory concentration (MIC)
Description: as §2, §3, §4, §6, §7, §8, §9, §10

Schigella sp. N-9 = assay: Gradient plate in vitro MIC, N9; details: N9, G-; for MIC: read-out: minimum inhibitory concentration (MIC)
Description: as §2, §3, §4

Escherichia coli N-10 = assay: Gradient plate in vitro MIC, N10; details: N10, G-; for MIC: Escherichia coli, read-out: minimum inhibitory concentration (MIC)
Description: as §2, §3, §4, §5
N-10 is Escherichia coli

[8] = system: Klebsiella pneumonia X-26; assay: Gradient plate in vitro MIC, X26; details: X26, G-; for MIC: Klebsiella pneumoniae, read-out: minimum inhibitory concentration (MIC)
Description: as §2, §3, §4, §5
X-26 is Klebsiella pneumonia

[9] = system: Pseudomonas aerogenosa X-528; assay: Gradient plate in vitro MIC, X528; details: X528, G-; for MIC: Pseudomonas, read-out: minimum inhibitory concentration (MIC)
Description: as §2, §3, §4, §5
X-528 is Pseudomonas aerogenosa

[10] = system: penicillin-resistant Staphylococcus aureus strain V-41; assay: Gradient plate in vitro MIC, strain V41; details: V41, G+, read-out: minimum inhibitory concentration (MIC)
Description: as §2, §3, §4, §6, §7, §8, §9, §10

In the case of `NC(C(=O)NC1C(=O)N2C(C(=O)O)=C(C=CC(=O)O)CS[C@H]12)c1ccccc1` (stereo partly shown) [Example 23, 7-(2'-amino-2'-phenylacetamido)-3-(2'-carboxyvinyl)-3-cephem-4-carboxylic acid], the “antibiotically active zone on bioautograph” value (Sarcina lutea; acid residue after formic acid/trifluoroacetic acid) is reported as “only one antibiotically active zone”, the “polarity of the active zone on the bioautograph” value (Sarcina lutea; compared with cephalexin) is reported as “more polar than cephalexin” and the “antibiotic activity in disc plate assay” value [1] is reported as “antibiotic activity”.

For `N#C/C=C/C1=C(C(=O)O)N2C(=O)C(NC(=O)COc3ccccc3)C2SC1` (single isomer, unassigned; isomer 3) [Example 20 trans-isomer, 3-(2-cyanovinyl)-7-phenoxyacetamido-3-cephem-4-carboxylic acid], the “antibiotic activity zone on bioautograph” value (B. subtilis) was “large antibiotic activity zone” and the “gradient plate MIC, trans-isomer compared with cis-isomer” value ([2]; against both Gram positive and Gram negative microorganisms) was “more active than the cis-isomer”.

“3-(2-cyanovinyl)-7-phenoxyacetamido-3-cephem-4-carboxylic acid” was tested, and the “minimum inhibitory concentration (MIC)” value [3] was 38.2 micrograms of compound per mil, the “minimum inhibitory concentration (MIC)” value [4] was 12.1 micrograms of compound per mil and the “minimum inhibitory concentration (MIC)” value [5] was > 20 micrograms of compound per mil. For the same compound, the “minimum inhibitory concentration (MIC)” value (Serratia marcescens X-99) was 21.0 micrograms of compound per mil, the “minimum inhibitory concentration (MIC)” value [6] was 3.8 micrograms of compound per mil and the “minimum inhibitory concentration (MIC)” value [7] was 6.1 micrograms of compound per mil. For the same compound, the “minimum inhibitory concentration (MIC)” value (Schigella sp. N-9) was 40.4 micrograms of compound per mil, the “minimum inhibitory concentration (MIC)” value (Escherichia coli N-10) was 102.0 micrograms of compound per mil and the “minimum inhibitory concentration (MIC)” value [8] was 110.0 micrograms of compound per mil. The “minimum inhibitory concentration (MIC)” value [9] was 162.0 micrograms of compound per mil.

`CCOC(=O)C=CC1=C(C(=O)O)N2C(=O)C(NC(=O)C(C(=O)O)c3ccccc3)[C@H]2SC1` (stereo partly shown) [7-(2'-carboxy-2'-phenylacetamido)-3-(2'-ethoxycarbonylvinyl)-3-cephem-4-carboxylic acid] was tested, and the MIC [3] was 3 µg/mL (≈ 6.52 µM), the MIC [4] was 0.8 µg/mL (≈ 1.74 µM) and the MIC [5] was greater than 20 µg/mL. For the same compound, the MIC (Serratia marcescens X-99) was 0.6 µg/mL (≈ 1.3 µM), the MIC [10] was 7.9 µg/mL (≈ 17.2 µM) and the MIC [6] was 11.4 µg/mL (≈ 24.8 µM). For the same compound, the MIC [7] was 10.3 µg/mL (≈ 22.4 µM), the MIC (Schigella sp. N-9) was 1 µg/mL (≈ 2.17 µM) and the MIC (Escherichia coli N-10) was 6.3 µg/mL (≈ 13.7 µM). It also gave an MIC [8] of 2.5 µg/mL (≈ 5.43 µM) and an MIC [9] of 42.2 µg/mL (≈ 91.6 µM).

With `N#C/C=C\C1=C(C(=O)O)N2C(=O)C(NC(=O)COc3ccccc3)C2SC1` (single isomer, unassigned; isomer 3) [Example 20 cis-isomer, 3-(2-cyanovinyl)-7-phenoxyacetamido-3-cephem-4-carboxylic acid] the “antibiotic activity zone on bioautograph” value (B. subtilis) was “large antibiotic activity zone”.

Work on `O=C(O)C=CC1=C(C(=O)O)N2C(=O)C(NC(=O)C(C(=O)O)c3ccccc3)[C@H]2SC1` (stereo partly shown) [7-(2'-carboxy-2'-phenylacetamido)-3-(2'-carboxyvinyl)-3-cephem-4-carboxylic acid] yielded an MIC [3] of 2 µg/mL (≈ 4.63 µM), an MIC [4] of 1 µg/mL (≈ 2.31 µM) and an MIC [5] greater than 20 µg/mL. For the same compound, the MIC (Serratia marcescens X-99) was less than 8 µg/mL, the MIC [10] was greater than 20 µg/mL and the MIC [6] was greater than 20 µg/mL. For the same compound, the MIC [7] was greater than 20 µg/mL, the MIC (Schigella sp. N-9) was 7 µg/mL (≈ 16.2 µM) and the MIC (Escherichia coli N-10) was 36.5 µg/mL (≈ 84.4 µM). It also gave an MIC [8] of 35 µg/mL (≈ 80.9 µM) and an MIC [9] of 29.5 µg/mL (≈ 68.2 µM).

`CCOC(=O)C=CC1=C(C(=O)O)N2C(=O)C(NC(=O)Cc3cccs3)C2SC1` (stereo not shown) gave an MIC [3] of 3.3 µg/mL (≈ 7.81 µM), an MIC [4] of 4.7 µg/mL (≈ 11.1 µM) and an MIC [5] greater than 20 µg/mL. For the same compound, the MIC (Serratia marcescens X-99) was greater than 50 µg/mL, the MIC [10] was 6.2 µg/mL (≈ 14.7 µM) and the MIC [6] was 7.1 µg/mL (≈ 16.8 µM). The MIC [7] was 7.5 µg/mL (≈ 17.8 µM), the MIC (Schigella sp. N-9) was 2.6 µg/mL (≈ 6.15 µM) and the MIC (Escherichia coli N-10) was 3.8 µg/mL (≈ 8.99 µM). The MIC [8] was 5.3 µg/mL (≈ 12.5 µM) and the MIC [9] was greater than 50 µg/mL.

`CCOC(=O)C=CC1=C(C(=O)O)N2C(=O)C(NC(=O)COc3ccccc3)[C@H]2SC1` (stereo partly shown) [Example 3, 3-(2'-ethoxycarbonylvinyl)-7-phenoxyacetamido-3-cephem-4-carboxylic acid] was tested, and the “activity as an antibiotic in gradient plate tests” value ([2]; variety of both Gram positive and Gram negative microorganisms) was “showed activity as an antibiotic”.

Work on `O=C(O)C=CC1=C(C(=O)O)N2C(=O)C(NC(=O)[C@H](O)c3ccccc3)C2SC1` (stereo partly shown) yielded an MIC [3] of 1 µg/mL (≈ 2.47 µM), an MIC [4] of 0.6 µg/mL (≈ 1.48 µM) and an MIC [5] greater than 20 µg/mL. It also gave an MIC (Serratia marcescens X-99) greater than 50 µg/mL, an MIC [10] greater than 20 µg/mL and an MIC [6] of 11.2 µg/mL (≈ 27.7 µM). It also gave an MIC [7] greater than 20 µg/mL, an MIC (Schigella sp. N-9) of 3.3 µg/mL (≈ 8.16 µM) and an MIC (Escherichia coli N-10) of 5.7 µg/mL (≈ 14.1 µM). For the same compound, the MIC [8] was 5 µg/mL (≈ 12.4 µM) and the MIC [9] was greater than 50 µg/mL.
